Measured values as given in patent EP1510220B1 (priority 1993, dated 1994).

Columns and labels:
Assay type in all cases: cell-based
TGF-beta = assay: ELISA for TGF-beta in medium conditioned on human EX cultures; settings: 5 µM
Protocol: The total latent and active TGF-beta present was determined by a sandwich ELISA. Maxisorb 96-well ELISA plates (available from Gibco) were coated with neutralizing antiserum against TGF-beta (BDA19; available from R & D Systems) at 2 micrograms/cm^2 in phosphate buffered saline (PBS) overnight at room temperature. The plates were washed between each step with tris-buffered saline containing 0.1% Triton X-100 (available from Sigma Chemical Company). The plates were incubated with samples for 2 hours, with a second antibody to TGF-beta (BDA5; available from R & D Systems) at 0.1 micrograms/ml for 2 hours, anti-rabbit IgG peroxidase conjugated to antibody (available from Sigma Chemical Co.), made up according to manufacturer's instructions, for 15 minutes. Absorbances at 492 nm were converted into quantities of TGF-beta protein using a standard curve. Both conditioned media and standards were assayed in the presence of 10% FCS in DMEM. This assay was linear for TGF-beta concentrations in the range from 0.1 ng/ml to 20 ng/ml in the presence of 10% FCS in DMEM.
Cell counting, DNA synthesis assays and assays for total and active TGF-beta were performed as described in Example 7.

[1] = tested on: Vascular smooth muscle cells; assay: DNA synthesis by [3H]-thymidine incorporation in rat vascular smooth muscle cells; settings: between 12 and 24 hours after stimulation, control 17614 +/- 1714 cpm
Protocol: DNA synthesis was assayed by [^3H]-thymidine incorporation as described in Grainger et al., Biochem. J., 277:145-151, 1991. Vascular smooth muscle cells were subcultured, grown in DMEM + 10% FCS for 24 hours, made quiescent in serum-free DMEM for 48 hours and restimulated with 10% FCS at "0" hours. [^3H]-thymidine (5 microcuries/ml; available from Amersham International) was added 12 hours after restimulation and the cells were harvested after 24 hours. DNA synthesis by adventitial fibroblasts was determined similarly, except that the cells were made quiescent in serum-free DMEM for 24 hours.

Rat aortic SMCs = assay: Wound migration assay on confluent SMC
Protocol: Cell culture. Rat aortic SMCs from 12-20 week old Wistar male rats were prepared by enzyme dispersion, as described in Example 7. The cultured cells were confirmed as >99% SMC by staining for SM-MHC, and proliferated with a cell cycle time of 36 h. Cells were passaged as described in Example 7, and were used either in primary culture or between passages 6-12.
Migration. Migration was assayed using SMC grown to confluence on glass coverslips. A defined injury is performed on the confluent layer of cells, which are allowed to recover in D-MEM + 10% FCS for 24 h. Bromodeoxyuridine (10 µM) is added between 18-24 h, to label proliferating cells. Cells migrating past the boundary of the wound edge at 24 h are detected by propidium iodide (PI) staining of the cell nuclei (500 µM PI in PBS + 0.5% NP-40 for 30 min at room temperature). Cells that synthesized DNA were detected by antibody staining for bromodeoxyuridine using fluorescein-conjugated anti-bromodeoxyuridine antibodies. Migrating and proliferating cells in each field of view were simultaneously counted by image analysis of the rhodamine emission from PI and fluorescein emission from bromodeoxyuridine.

CC/C(=C(\c1ccccc1)c1ccc(OCCN(C)C)cc1)c1ccccc1 [tamoxifen, trans-2-[4-(1,2-diphenyl-1-butenyl)phenoxy]-N,N-dimethylethylamine]
proportion of total TGF-beta protein that was activated (TGF-beta): 55±5% | total TGF-beta protein in conditioned medium (TGF-beta): 6.0 ± 2.0 ng/mL | DNA synthesis, [3H]-thymidine incorporation ([1]; 10 micromolar): 16898 +/- 3417 cpm | DNA synthesis, [3H]-thymidine incorporation ([1]; 50 micromolar): 18002 +/- 4167 cpm | inhibition at 10 µM (Rat aortic SMCs; Rattus norvegicus, added at the time of wounding, TGF-beta-1 10 ng/ml, tamoxifen 10 µM, 24 h, read-out: less cells crossed the boundary of the wound): ~90% | entry into DNA synthesis stimulated upon wounding (Rat aortic SMCs; bromodeoxyuridine labeling): did not significantly inhibit
